Assay results: PubChem BioAssay (NCI)
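Following 48 hours of exposure in 96-well plates, responses at five concentrations were used to interpolate endpoints linearly. TGI: concentration producing complete growth inhibition.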

Key:
Experiment in all cases: NCI tumour cell line growth inhibition, 48 h
BT-549 breast = tested on: BT-549 breast
COLO 205 colon = tested on: COLO 205 colon
DU-145 prostate = tested on: DU-145 prostate
EKVX NSCLC = tested on: EKVX NSCLC
HCT-15 colon = tested on: HCT-15 colon
HL-60(TB) leukemia = tested on: HL-60(TB) leukemia
HOP-62 NSCLC = tested on: HOP-62 NSCLC
MALME-3M melanoma = tested on: MALME-3M melanoma
MDA-MB-231 breast = tested on: MDA-MB-231 breast
MOLT-4 leukemia = tested on: MOLT-4 leukemia
NCI-H23 lung = tested on: NCI-H23 lung
NCI-H522 lung = tested on: NCI-H522 lung
OVCAR-4 ovarian = tested on: OVCAR-4 ovarian
OVCAR-8 ovarian = tested on: OVCAR-8 ovarian
PC-3 prostate = tested on: PC-3 prostate
SF-295 CNS = tested on: SF-295 CNS
SN12C renal = tested on: SN12C renal
UACC-257 melanoma = tested on: UACC-257 melanoma
UO-31 renal = tested on: UO-31 renal

Compound	TGI (BT-549 breast)	TGI (COLO 205 colon)	TGI (DU-145 prostate)	TGI (EKVX NSCLC)	TGI (HCT-15 colon)	TGI (HL-60(TB) leukemia)	TGI (HOP-62 NSCLC)	TGI (MALME-3M melanoma)	TGI (MDA-MB-231 breast)	TGI (MOLT-4 leukemia)	TGI (NCI-H23 lung)	TGI (NCI-H522 lung)	TGI (OVCAR-4 ovarian)	TGI (OVCAR-8 ovarian)	TGI (PC-3 prostate)	TGI (SF-295 CNS)	TGI (SN12C renal)	TGI (UACC-257 melanoma)	TGI (UO-31 renal)
C=CCOc1ccc(/C(N=Nc2ccc([N+](=O)[O-])cc2)=N/NC(=O)c2ccccc2)cc1OC	> 100 µM	> 100 µM	> 100 µM	> 100 µM	> 100 µM	> 100 µM	> 100 µM	> 100 µM	> 100 µM	> 100 µM	> 100 µM	> 100 µM	> 100 µM	> 100 µM	> 100 µM	> 100 µM	> 100 µM	> 100 µM	> 100 µM
CC(=O)N1C(Nc2ccccn2)CCN1c1ccccc1 (centres undefined)	> 10 µM	> 10 µM	> 10 µM	> 10 µM	> 10 µM	> 10 µM	> 10 µM	> 10 µM	> 10 µM	> 10 µM	> 10 µM	> 10 µM	> 10 µM	> 10 µM	> 10 µM	> 10 µM	> 10 µM	> 10 µM	> 10 µM
O=C1c2ccccc2S(=O)(=O)c2c1cccc2[N+](=O)[O-]	> 8.34 µM	2.77 µM	> 10 µM	> 8.6 µM	2.95 µM	4.97 µM	> 10 µM	3.02 µM	5.36 µM	6.04 µM	> 8.17 µM	3.09 µM	4.6 µM	5.46 µM	> 9.02 µM	> 10 µM	6.56 µM	4.76 µM	3.92 µM
CCC1NC(=O)C1NC(=O)OC (centres undefined)	> 100 µM	> 100 µM	> 100 µM	> 100 µM	> 100 µM	> 100 µM	> 100 µM	> 100 µM	> 100 µM	> 100 µM	> 100 µM	> 100 µM	> 100 µM	> 100 µM	> 100 µM	> 100 µM	> 100 µM	> 100 µM	> 100 µM
CC#CC#C/C=C1/O[C@]2(CCC(OC(C)=O)CO2)[C@@H]2O[C@H]12 (some centres undefined)	50.4 µM	32.4 µM	> 100 µM	77.5 µM	42.8 µM	48.7 µM	> 100 µM	35.6 µM	44.2 µM	57 µM	44.7 µM	35.6 µM	> 100 µM	> 100 µM	80.9 µM	> 100 µM	51.9 µM	74.9 µM	39 µM
C[C@]12CC[C@@H]3c4ccc(OP(=O)(O)O)cc4CC[C@H]3[C@@H]1CCC2=O	> 100 µM	> 100 µM	> 100 µM	> 100 µM	> 100 µM	> 100 µM	> 100 µM	> 100 µM	> 100 µM	> 100 µM	> 100 µM	> 100 µM	> 100 µM	> 100 µM	> 100 µM	> 100 µM	> 100 µM	> 100 µM	> 100 µM
